# Source: PubChem BioAssay (NCI)
#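 Cells were grown in 96-well plates and exposed to each compound for 48 hours at five concentrations; endpoints were interpolated linearly between bracketing concentrations, or set to the highest concentration if not reached. GI50: concentration for 50% inhibition of growth. At the TGI there is no net growth.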
# Columns and labels:
# Test in all cases: growth of human tumour cells (NCI), 48 h
# 786-0 renal = test system: 786-0 renal
# A498 renal = test system: A498 renal
# A549 NSCLC = test system: A549 NSCLC
# ACHN renal = test system: ACHN renal
# BT-549 breast = test system: BT-549 breast
# CAKI-1 renal = test system: CAKI-1 renal
# CCRF-CEM leukemia = test system: CCRF-CEM leukemia
# COLO 205 colon = test system: COLO 205 colon
# DU-145 prostate = test system: DU-145 prostate
# EKVX NSCLC = test system: EKVX NSCLC
# HCC-2998 colon = test system: HCC-2998 colon
# HCT-116 colon = test system: HCT-116 colon
# HCT-15 colon = test system: HCT-15 colon
# HL-60(TB) leukemia = test system: HL-60(TB) leukemia
# HOP-62 NSCLC = test system: HOP-62 NSCLC
# HOP-92 NSCLC = test system: HOP-92 NSCLC
# HS 578T breast = test system: HS 578T breast
# HT29 colon = test system: HT29 colon
# K-562 leukemia = test system: K-562 leukemia
# KM12 colon = test system: KM12 colon
# LOX IMVI melanoma = test system: LOX IMVI melanoma
# M14 melanoma = test system: M14 melanoma
# MALME-3M melanoma = test system: MALME-3M melanoma
# MCF7 breast = test system: MCF7 breast
# MDA-MB-231 breast = test system: MDA-MB-231 breast
# MDA-MB-435 = test system: MDA-MB-435
# MOLT-4 leukemia = test system: MOLT-4 leukemia
# NCI-H226 lung = test system: NCI-H226 lung
# NCI-H23 lung = test system: NCI-H23 lung
# NCI-H460 lung = test system: NCI-H460 lung
# NCI-H522 lung = test system: NCI-H522 lung
# NCI/ADR-RES ovarian = test system: NCI/ADR-RES ovarian
# OVCAR-3 ovarian = test system: OVCAR-3 ovarian
# OVCAR-4 ovarian = test system: OVCAR-4 ovarian
# OVCAR-5 ovarian = test system: OVCAR-5 ovarian
# OVCAR-8 ovarian = test system: OVCAR-8 ovarian
# PC-3 prostate = test system: PC-3 prostate
# RPMI-8226 leukemia = test system: RPMI-8226 leukemia
# RXF 393 renal = test system: RXF 393 renal
# SF-268 CNS = test system: SF-268 CNS
# SF-295 CNS = test system: SF-295 CNS
# SF-539 CNS = test system: SF-539 CNS
# SK-MEL-28 melanoma = test system: SK-MEL-28 melanoma
# SK-MEL-5 melanoma = test system: SK-MEL-5 melanoma
# SK-OV-3 ovarian = test system: SK-OV-3 ovarian
# SN12C renal = test system: SN12C renal
# SNB-19 CNS = test system: SNB-19 CNS
# SNB-75 CNS = test system: SNB-75 CNS
# SR leukemia = test system: SR leukemia
# SW-620 colon = test system: SW-620 colon
# T-47D breast = test system: T-47D breast
# TK-10 renal = test system: TK-10 renal
# U251 CNS = test system: U251 CNS
# UACC-257 melanoma = test system: UACC-257 melanoma
# UACC-62 melanoma = test system: UACC-62 melanoma
# UO-31 renal = test system: UO-31 renal
smiles,measurement,setting,value
Oc1ccc(Oc2cnc3cc(Cl)ccc3n2)cc1,GI50,786-0 renal,31 µM
same,TGI,786-0 renal,> 100 µM
same,GI50,A498 renal,25.4 µM
same,TGI,A498 renal,> 100 µM
same,GI50,A549 NSCLC,61.8 µM
same,TGI,A549 NSCLC,> 100 µM
same,GI50,ACHN renal,36.3 µM
same,TGI,ACHN renal,> 100 µM
same,GI50,BT-549 breast,20.9 µM
same,TGI,BT-549 breast,> 100 µM
same,GI50,CAKI-1 renal,21.8 µM
same,TGI,CAKI-1 renal,68.2 µM
same,GI50,CCRF-CEM leukemia,1.62 µM
same,TGI,CCRF-CEM leukemia,79.9 µM
same,GI50,COLO 205 colon,92.4 µM
same,TGI,COLO 205 colon,> 100 µM
same,GI50,DU-145 prostate,42.4 µM
same,TGI,DU-145 prostate,> 100 µM
same,GI50,EKVX NSCLC,13.2 µM
same,TGI,EKVX NSCLC,74.4 µM
same,GI50,HCC-2998 colon,24.1 µM
same,TGI,HCC-2998 colon,61.6 µM
same,GI50,HCT-116 colon,37.1 µM
same,TGI,HCT-116 colon,> 100 µM
same,GI50,HCT-15 colon,33.7 µM
same,TGI,HCT-15 colon,> 100 µM
same,GI50,HL-60(TB) leukemia,2.25 µM
same,TGI,HL-60(TB) leukemia,> 100 µM
same,GI50,HOP-62 NSCLC,> 100 µM
same,TGI,HOP-62 NSCLC,> 100 µM
same,GI50,HOP-92 NSCLC,37.3 µM
same,TGI,HOP-92 NSCLC,> 100 µM
same,GI50,HS 578T breast,35.5 µM
same,TGI,HS 578T breast,> 100 µM
same,GI50,HT29 colon,51.7 µM
same,TGI,HT29 colon,> 100 µM
same,GI50,K-562 leukemia,37.7 µM
same,TGI,K-562 leukemia,> 100 µM
same,GI50,KM12 colon,13.4 µM
same,TGI,KM12 colon,> 100 µM
same,GI50,LOX IMVI melanoma,34.9 µM
same,TGI,LOX IMVI melanoma,> 100 µM
same,GI50,M14 melanoma,46.5 µM
same,TGI,M14 melanoma,> 100 µM
same,GI50,MALME-3M melanoma,34.7 µM
same,TGI,MALME-3M melanoma,> 100 µM
same,GI50,MCF7 breast,38.1 µM
same,TGI,MCF7 breast,> 100 µM
same,GI50,MDA-MB-231 breast,24.5 µM
same,TGI,MDA-MB-231 breast,> 100 µM
same,GI50,MDA-MB-435,23.8 µM
same,TGI,MDA-MB-435,97.3 µM
same,GI50,MOLT-4 leukemia,14.6 µM
same,TGI,MOLT-4 leukemia,> 100 µM
same,GI50,NCI-H226 lung,55.4 µM
same,TGI,NCI-H226 lung,> 100 µM
same,GI50,NCI-H23 lung,52.8 µM
same,TGI,NCI-H23 lung,> 100 µM
same,GI50,NCI-H460 lung,20.1 µM
same,TGI,NCI-H460 lung,53.1 µM
same,GI50,NCI-H522 lung,19.1 µM
same,TGI,NCI-H522 lung,> 100 µM
same,GI50,NCI/ADR-RES ovarian,35.7 µM
same,TGI,NCI/ADR-RES ovarian,> 100 µM
same,GI50,OVCAR-3 ovarian,15.8 µM
same,TGI,OVCAR-3 ovarian,38.4 µM
same,GI50,OVCAR-4 ovarian,28.2 µM
same,TGI,OVCAR-4 ovarian,> 100 µM
same,GI50,OVCAR-5 ovarian,> 100 µM
same,TGI,OVCAR-5 ovarian,> 100 µM
same,GI50,OVCAR-8 ovarian,> 100 µM
same,TGI,OVCAR-8 ovarian,> 100 µM
same,GI50,PC-3 prostate,23.6 µM
same,TGI,PC-3 prostate,> 100 µM
same,GI50,RPMI-8226 leukemia,16.7 µM
same,TGI,RPMI-8226 leukemia,> 100 µM
same,GI50,RXF 393 renal,46.6 µM
same,TGI,RXF 393 renal,> 100 µM
same,GI50,SF-268 CNS,14.8 µM
same,TGI,SF-268 CNS,> 100 µM
same,GI50,SF-295 CNS,22.6 µM
same,TGI,SF-295 CNS,74.5 µM
same,GI50,SF-539 CNS,49.4 µM
same,TGI,SF-539 CNS,> 100 µM
same,GI50,SK-MEL-28 melanoma,76 µM
same,TGI,SK-MEL-28 melanoma,> 100 µM
same,GI50,SK-MEL-5 melanoma,28.6 µM
same,TGI,SK-MEL-5 melanoma,> 100 µM
same,GI50,SK-OV-3 ovarian,> 100 µM
same,TGI,SK-OV-3 ovarian,> 100 µM
same,GI50,SN12C renal,34.2 µM
same,TGI,SN12C renal,> 100 µM
same,GI50,SNB-19 CNS,91.6 µM
same,TGI,SNB-19 CNS,> 100 µM
same,GI50,SNB-75 CNS,26 µM
same,TGI,SNB-75 CNS,> 100 µM
same,GI50,SR leukemia,22 µM
same,TGI,SR leukemia,68.4 µM
same,GI50,SW-620 colon,38.2 µM
same,TGI,SW-620 colon,> 100 µM
same,GI50,T-47D breast,32.8 µM
same,TGI,T-47D breast,> 100 µM
same,GI50,TK-10 renal,> 100 µM
same,TGI,TK-10 renal,> 100 µM
same,GI50,U251 CNS,54.7 µM
same,TGI,U251 CNS,> 100 µM
same,GI50,UACC-257 melanoma,65.7 µM
same,TGI,UACC-257 melanoma,> 100 µM
same,GI50,UACC-62 melanoma,40.9 µM
same,TGI,UACC-62 melanoma,> 100 µM
same,GI50,UO-31 renal,3.88 µM
same,TGI,UO-31 renal,94 µM
